Columns and labels:
[1] = target: T1, LIMK1 (Homo sapiens, UniProt P53667); test: biochemical; design: KINOMEscan active-site competition binding, percent of control (100 = no competition); conditions: competition binding, percent control
From the text: Kinases inhibited >25% to 50% have yellow circles, 51% to 75% have orange circles, and >76% have red circles. In each case, the size of the circle is proportional to percentage inhibition.

[2] = target: T1, LIMK1; test: in vitro kinase enzyme assay; assay type: biochemical
[3] = target: TGFBR2 (Homo sapiens, UniProt P37173); test: biochemical; design: KINOMEscan active-site competition binding, percent of control (100 = no competition); conditions: competition binding, percent control
[4] = target: EGFR(E746-A750del) (Homo sapiens, UniProt P00533, DEL746-750); test: biochemical; design: KINOMEscan active-site competition binding, percent of control (100 = no competition); conditions: competition binding, percent control
[5] = target: CLK1 (Homo sapiens, UniProt P49759); test: biochemical; design: KINOMEscan active-site competition binding, percent of control (100 = no competition); conditions: competition binding, percent control
[6] = target: PIK3CA(C420R) (Homo sapiens, UniProt P42336, C420R); test: biochemical; design: KINOMEscan active-site competition binding, percent of control (100 = no competition); conditions: competition binding, percent control
[7] = target: KIT(V559D,V654A) (Homo sapiens, UniProt P10721, V559D/V654A); test: biochemical; design: KINOMEscan active-site competition binding, percent of control (100 = no competition); conditions: competition binding, percent control
[8] = target: BMPR2 (Homo sapiens, UniProt Q13873); test: biochemical; design: KINOMEscan active-site competition binding, percent of control (100 = no competition); conditions: competition binding, percent control
[9] = target: T2, DCAMKL3 (Homo sapiens, UniProt Q9C098); test: biochemical; design: KINOMEscan active-site competition binding, percent of control (100 = no competition); conditions: competition binding, percent control
T2 construct: gene DCLK3

[10] = target: GRK7 (Homo sapiens, UniProt Q8WTQ7); test: biochemical; design: KINOMEscan active-site competition binding, percent of control (100 = no competition); conditions: competition binding, percent control
[11] = target: T3, SIK (Homo sapiens, UniProt P57059); test: biochemical; design: KINOMEscan active-site competition binding, percent of control (100 = no competition); conditions: competition binding, percent control
T3 construct: gene SIK1

[12] = target: PRKG2 (Homo sapiens, UniProt Q13237); test: biochemical; design: KINOMEscan active-site competition binding, percent of control (100 = no competition); conditions: competition binding, percent control

EGFR(E746-A750del), sequence (P00533 with tags, fused parts or gaps DEL746-750): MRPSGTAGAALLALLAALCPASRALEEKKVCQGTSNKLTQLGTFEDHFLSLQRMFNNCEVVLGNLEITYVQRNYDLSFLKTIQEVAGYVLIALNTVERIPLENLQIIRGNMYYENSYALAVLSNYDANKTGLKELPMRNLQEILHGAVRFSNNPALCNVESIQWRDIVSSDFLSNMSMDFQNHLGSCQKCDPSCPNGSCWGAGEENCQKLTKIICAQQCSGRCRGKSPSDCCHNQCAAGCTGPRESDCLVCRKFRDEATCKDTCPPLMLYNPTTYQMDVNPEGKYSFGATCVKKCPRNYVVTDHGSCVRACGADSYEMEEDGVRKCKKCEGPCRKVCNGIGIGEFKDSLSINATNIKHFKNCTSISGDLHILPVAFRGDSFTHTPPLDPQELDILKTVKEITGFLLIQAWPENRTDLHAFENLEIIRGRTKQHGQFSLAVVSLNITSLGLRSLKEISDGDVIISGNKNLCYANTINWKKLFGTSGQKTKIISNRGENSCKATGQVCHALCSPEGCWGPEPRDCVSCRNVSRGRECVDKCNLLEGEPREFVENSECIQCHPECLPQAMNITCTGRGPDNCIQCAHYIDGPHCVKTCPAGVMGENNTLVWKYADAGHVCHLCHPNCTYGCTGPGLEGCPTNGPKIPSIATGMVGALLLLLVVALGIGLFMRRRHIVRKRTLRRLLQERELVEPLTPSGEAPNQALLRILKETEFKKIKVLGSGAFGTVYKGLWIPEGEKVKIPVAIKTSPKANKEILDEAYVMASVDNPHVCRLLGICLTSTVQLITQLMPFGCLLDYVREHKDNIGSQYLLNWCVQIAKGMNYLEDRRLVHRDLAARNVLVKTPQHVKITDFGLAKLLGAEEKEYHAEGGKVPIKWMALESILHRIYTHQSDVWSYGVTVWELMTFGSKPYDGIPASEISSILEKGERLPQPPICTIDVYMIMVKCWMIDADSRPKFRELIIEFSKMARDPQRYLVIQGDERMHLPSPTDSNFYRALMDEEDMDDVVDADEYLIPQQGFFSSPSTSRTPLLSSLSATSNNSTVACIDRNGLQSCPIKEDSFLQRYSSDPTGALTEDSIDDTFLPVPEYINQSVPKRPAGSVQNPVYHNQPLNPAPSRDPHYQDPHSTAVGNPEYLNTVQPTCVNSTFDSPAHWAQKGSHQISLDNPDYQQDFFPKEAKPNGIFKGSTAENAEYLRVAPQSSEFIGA
TGFBR2, sequence (P37173 whole entry): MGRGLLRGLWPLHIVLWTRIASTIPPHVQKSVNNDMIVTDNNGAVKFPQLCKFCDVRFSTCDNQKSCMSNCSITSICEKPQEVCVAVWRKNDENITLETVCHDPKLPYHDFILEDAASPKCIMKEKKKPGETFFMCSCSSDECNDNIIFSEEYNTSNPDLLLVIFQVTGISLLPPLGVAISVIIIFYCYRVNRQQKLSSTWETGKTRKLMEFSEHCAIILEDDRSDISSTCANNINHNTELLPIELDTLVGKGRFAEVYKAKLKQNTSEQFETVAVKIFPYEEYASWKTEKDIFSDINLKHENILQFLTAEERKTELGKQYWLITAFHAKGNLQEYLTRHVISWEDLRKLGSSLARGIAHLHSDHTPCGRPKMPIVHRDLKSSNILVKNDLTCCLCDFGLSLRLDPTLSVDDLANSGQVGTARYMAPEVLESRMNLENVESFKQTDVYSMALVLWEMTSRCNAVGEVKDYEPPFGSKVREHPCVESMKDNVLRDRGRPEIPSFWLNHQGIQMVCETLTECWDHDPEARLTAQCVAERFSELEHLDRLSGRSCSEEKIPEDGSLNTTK
KIT(V559D,V654A), sequence (P10721 whole entry V559D/V654A): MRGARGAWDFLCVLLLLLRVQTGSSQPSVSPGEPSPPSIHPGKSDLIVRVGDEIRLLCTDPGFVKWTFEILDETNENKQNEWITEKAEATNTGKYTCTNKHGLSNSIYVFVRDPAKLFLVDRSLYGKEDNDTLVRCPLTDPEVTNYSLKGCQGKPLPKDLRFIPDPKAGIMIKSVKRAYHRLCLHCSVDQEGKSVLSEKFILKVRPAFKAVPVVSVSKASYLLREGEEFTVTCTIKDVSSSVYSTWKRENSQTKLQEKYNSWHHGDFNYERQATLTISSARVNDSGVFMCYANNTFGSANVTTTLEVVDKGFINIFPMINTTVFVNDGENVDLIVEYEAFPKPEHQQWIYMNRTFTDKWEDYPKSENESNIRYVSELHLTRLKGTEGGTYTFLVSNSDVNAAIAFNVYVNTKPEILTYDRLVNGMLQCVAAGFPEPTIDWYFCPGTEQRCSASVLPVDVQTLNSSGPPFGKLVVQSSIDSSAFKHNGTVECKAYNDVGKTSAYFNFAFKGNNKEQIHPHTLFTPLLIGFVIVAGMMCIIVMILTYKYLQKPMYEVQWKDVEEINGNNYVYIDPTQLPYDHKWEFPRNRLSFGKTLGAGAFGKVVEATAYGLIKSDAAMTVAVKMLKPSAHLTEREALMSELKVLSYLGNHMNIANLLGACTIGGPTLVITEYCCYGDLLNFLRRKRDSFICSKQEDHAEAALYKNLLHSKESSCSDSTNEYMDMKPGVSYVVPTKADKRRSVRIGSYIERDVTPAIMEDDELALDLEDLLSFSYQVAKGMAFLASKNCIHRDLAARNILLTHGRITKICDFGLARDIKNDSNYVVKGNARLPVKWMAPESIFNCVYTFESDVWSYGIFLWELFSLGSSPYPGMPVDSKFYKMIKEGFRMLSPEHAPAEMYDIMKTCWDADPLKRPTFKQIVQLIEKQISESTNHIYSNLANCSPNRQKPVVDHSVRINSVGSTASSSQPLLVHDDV
BMPR2, sequence (Q13873 whole entry): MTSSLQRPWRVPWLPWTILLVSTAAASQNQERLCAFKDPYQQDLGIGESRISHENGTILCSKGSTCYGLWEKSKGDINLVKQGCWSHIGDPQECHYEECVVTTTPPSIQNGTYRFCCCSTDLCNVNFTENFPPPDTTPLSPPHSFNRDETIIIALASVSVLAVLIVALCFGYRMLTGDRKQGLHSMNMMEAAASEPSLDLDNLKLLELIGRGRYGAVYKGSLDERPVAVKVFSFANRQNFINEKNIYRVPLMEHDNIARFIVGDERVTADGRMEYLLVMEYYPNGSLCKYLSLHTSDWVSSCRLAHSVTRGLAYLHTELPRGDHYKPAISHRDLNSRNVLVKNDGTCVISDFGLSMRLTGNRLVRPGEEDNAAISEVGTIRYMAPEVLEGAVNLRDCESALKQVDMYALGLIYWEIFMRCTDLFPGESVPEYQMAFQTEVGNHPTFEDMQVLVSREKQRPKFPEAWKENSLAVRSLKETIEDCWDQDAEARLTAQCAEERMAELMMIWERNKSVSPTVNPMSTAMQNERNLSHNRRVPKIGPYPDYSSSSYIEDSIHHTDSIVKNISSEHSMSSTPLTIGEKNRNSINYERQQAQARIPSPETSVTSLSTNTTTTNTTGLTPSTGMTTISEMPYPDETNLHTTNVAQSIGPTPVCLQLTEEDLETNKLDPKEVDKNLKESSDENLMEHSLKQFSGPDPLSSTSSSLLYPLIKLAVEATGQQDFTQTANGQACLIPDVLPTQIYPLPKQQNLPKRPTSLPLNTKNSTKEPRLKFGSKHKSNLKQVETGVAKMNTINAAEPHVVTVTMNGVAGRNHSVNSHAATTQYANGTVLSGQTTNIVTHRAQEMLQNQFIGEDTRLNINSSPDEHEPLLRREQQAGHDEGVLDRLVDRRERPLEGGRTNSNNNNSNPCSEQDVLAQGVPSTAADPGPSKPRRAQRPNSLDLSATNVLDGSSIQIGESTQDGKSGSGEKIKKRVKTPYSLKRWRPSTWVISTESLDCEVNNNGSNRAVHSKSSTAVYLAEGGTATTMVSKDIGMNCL
T2 sequence (Q9C098 whole entry): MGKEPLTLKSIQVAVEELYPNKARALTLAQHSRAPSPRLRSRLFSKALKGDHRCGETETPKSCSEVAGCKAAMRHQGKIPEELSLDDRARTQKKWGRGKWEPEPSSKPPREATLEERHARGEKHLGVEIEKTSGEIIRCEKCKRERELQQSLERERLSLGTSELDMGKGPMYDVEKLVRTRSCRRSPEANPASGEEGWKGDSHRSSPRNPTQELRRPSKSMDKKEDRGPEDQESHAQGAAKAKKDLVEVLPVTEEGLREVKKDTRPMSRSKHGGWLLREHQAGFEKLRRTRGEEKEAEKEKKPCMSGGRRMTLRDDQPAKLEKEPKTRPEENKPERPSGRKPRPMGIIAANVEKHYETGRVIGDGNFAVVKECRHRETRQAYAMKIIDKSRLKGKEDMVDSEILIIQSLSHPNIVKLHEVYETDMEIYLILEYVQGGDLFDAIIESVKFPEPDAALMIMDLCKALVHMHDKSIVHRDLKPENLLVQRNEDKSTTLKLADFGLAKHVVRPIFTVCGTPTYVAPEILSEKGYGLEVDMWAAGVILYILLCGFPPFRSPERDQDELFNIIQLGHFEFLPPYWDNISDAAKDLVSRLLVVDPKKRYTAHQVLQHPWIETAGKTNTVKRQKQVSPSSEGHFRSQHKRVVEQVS
GRK7, sequence (Q8WTQ7 whole entry): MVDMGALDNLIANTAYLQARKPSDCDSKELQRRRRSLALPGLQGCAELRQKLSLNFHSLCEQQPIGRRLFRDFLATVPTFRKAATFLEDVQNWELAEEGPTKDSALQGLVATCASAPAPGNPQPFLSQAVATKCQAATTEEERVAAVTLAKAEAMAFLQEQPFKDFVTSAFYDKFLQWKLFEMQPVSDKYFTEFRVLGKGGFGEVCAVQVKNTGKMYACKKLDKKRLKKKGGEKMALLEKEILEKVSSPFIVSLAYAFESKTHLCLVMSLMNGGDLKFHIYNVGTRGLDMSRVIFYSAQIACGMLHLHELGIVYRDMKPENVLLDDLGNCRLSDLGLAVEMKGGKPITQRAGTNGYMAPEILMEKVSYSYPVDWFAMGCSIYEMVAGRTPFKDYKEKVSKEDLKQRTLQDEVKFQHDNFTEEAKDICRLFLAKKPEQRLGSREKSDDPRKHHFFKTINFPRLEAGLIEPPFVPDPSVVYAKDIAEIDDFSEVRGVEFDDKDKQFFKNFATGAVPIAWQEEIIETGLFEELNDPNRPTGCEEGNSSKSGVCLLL

Compound COc1ccc(-c2cnccc2-c2cnc(NC(=O)C(C)C)s2)c(C(F)(F)F)c1 [CRT0105446, N-{5-[3-(4-Methoxy-2-trifluoromethyl-phenyl)-pyridin-4-yl]-hiazol-2-yl}-isobutyramide] has a remaining binding at 10 µM [1] of 2%, an IC50 [2] of 8 nM and a remaining binding at 10 µM [3] of 94%. It also gave a remaining binding at 10 µM [4] of 100%, a remaining binding at 10 µM [5] of 85% and a remaining binding at 10 µM [6] of 100%. It also gave a remaining binding at 10 µM [7] of 100%, a remaining binding at 10 µM [8] of 100% and a remaining binding at 10 µM [9] of 88%. For the same compound, the remaining binding at 10 µM [10] was 58%, the remaining binding at 10 µM [11] was 84% and the remaining binding at 10 µM [12] was 100%.
Compound Cc1ccc(-c2cnccc2-c2cnc(Nc3ccc(O)cc3)s2)c(Cl)c1 [CRT0105950, 4-{5-[3-(2-Chloro-4-methyl-phenyl)-pyridin-4-yl]-thiazol-2-ylamino}-phenol] has a remaining binding at 10 µM [3] of 18%, a remaining binding at 10 µM [4] of 78% and a remaining binding at 10 µM [5] of 0.4%. The remaining binding at 10 µM [6] was 88%, the remaining binding at 10 µM [7] was 11% and the remaining binding at 10 µM [8] was 8.9%. The remaining binding at 10 µM [9] was 7.4%, the remaining binding at 10 µM [10] was 16% and the remaining binding at 10 µM [11] was 6.4%. It also gave a remaining binding at 10 µM [12] of 73%.
